Data from PubChem BioAssay AID1845216 (Molecular Pharmacology Branch, DTP, NCI, 2023).
Several values for one entry are separate records, joined by “and”; a condition that tells them apart may be missing. Equal entries are not always repeated.

Test system: SW 982 tumor spheroid viability
Assay: Anticancer human tumor SW 982 cell line growth inhibition;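 further: spheroids exposed to compound for 7 days before readout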
Details: spheroids with HUVEC and MSC; for viability, T/C: stronger effect = lower value
Excerpt: Multicellular complex tumor spheroid response to DNA repair inhibitors in combination with DNA-damaging drugs
This study explores the anticancer activities of DNA-damaging drugs and inhibitors of DNA damage repair, both as single agents and in combinations. Complex tumor spheroids comprised of malignant cells, endothelial cells and mesenchymal stem cells served as an in vitro model for human solid tumors. This model system incorporates physiologically relevant features and patient-derived or established malignant cell lines with clinically relevant genetic alterations from many tumor types. Twenty-six patient-derived or established malignant cell lines were evaluated representing sarcoma, melanoma, small cell lung cancer (SCLC), non-small cell lung cancer (NSCLC), as well as bladder, ovarian and pancreatic cancers. The concentration ranges selected for each drug and investigational agent were based upon clinically achievable concentrations if the clinical Cmax of the agent was known.
Compounds. The drugs and compounds olaparib (NSC753686), talazoparib (NSC767125), berzosertib (NSC777718), elimusertib (NSC800525), nedisertib (NSC802822), VX-984 (NSC792969), AZD-1390 (NSC803789), temozolomide (NSC362856), topotecan (NSC609699), trabectedin (NSC813783), staurosporine (NSC755774), and gemcitabine (NSC613327) were obtained from the National Cancer Institute (NCI) Developmental Therapeutics Program Chemical Repository. The FDA-approved anticancer drug set is available from the Developmental Therapeutics Program at https://dtp.cancer.gov/organization/dscb/obtaining/available_plates.htm. […] The stock solutions were prepared in dimethyl sulfoxide (DMSO, Sigma-Aldrich, St. Louis, MO, cat. D2650) at 400-fold the tested concentration and stored at -70 degrees C. Prior to their use, the stock solutions were diluted in fresh medium and the final DMSO concentration in the assay was 0.25% (v/v). All drugs and investigational agents were tested over a range starting from a high concentration at or near the clinical Cmax and decreasing in half-log increments. If the clinical Cmax for an agent had not been determined, the highest concentration tested was 10 microM.
Cell Lines. The patient-derived cancer cell (PDC) lines: 156681-154-R-J1-PDC, 283228-195-R-J1-PDC, 287954-098-R-J1-PDC, 292921-168-R-J2-PDC, 349418-098-R-PDC, 425362-245-T-J1-PDC, 556581-035-R-J1-PDC, and BL0293-F563-PDC were received from the NCI Patient-Derived Models Repository (PDMR, https://pdmr.cancer.gov). The established cell lines HS-SY-2 (RRID:CVCL_8719), MPNST, and SYO-1 (RRID:CVCL_7146) were obtained from the Sloan Kettering Institute. The alveolar soft parts sarcoma cell line ASPS-1 (RRID:CVCL_S738) was established at the NCI and grown from internal seed stocks. The following established cell lines were purchased from the American Type Culture Collection (ATCC, Manassas, VA): G-401 (ATCC, cat. CRL-1441, RRID:CVCL_0270), SW982 (ATCC, cat. HTB-93, RRID:CVCL_1734), VA-ES-BJ (ATCC, cat. CRL-2138, RRID:CVCL_1785), NCI-H719 (ATCC, cat. CRL-5837, RRID:CVCL_1582), NCI-H196 (ATCC, cat. CRL-5823, RRID:CVCL_1509), NCI-H841 (ATCC, cat. CRL-5845, RRID:CVCL_1595), NCI-H1618 (ATCC, cat. CRL-5879, RRID:CVCL_1480), NCI-H1876 (ATCC, cat. CRL-5902, RRID:CVCL_1503), DMS 114 (ATCC, cat. CRL-2066; RRID:CVCL_1174), NCI-H211 (ATCC, cat. CRL-5824; RRID:CVCL_1529), and SW 1271 (ATCC, cat. CRL-2177, RRID:CVCL_1716). The small cell lung cancer cell line COR-L88 was purchased from Sigma-Aldrich (cat. 92031917-1VL, RRID:CVCL_1141). The non-small cell lung cancer cell lines NCI-H226 (RRID:CVCL_1544) and NCI-H322M (RRID:CVCL_1557) were established at the NCI and grown from internal seed stocks. Pooled donor human umbilical vein endothelial cells (HUVEC, Lonza, cat. CC-2519) and human mesenchymal stem cells (hMSC, Lonza, cat. PT-2501) were purchased from Lonza (Walkersville, MD).
Cell Culture. All cells were maintained in an incubator at 37 degrees C and 5% CO2 with 95% humidity. […]

[1] = compound alone, run of 12/02/2019
[2] = compound alone, run of 12/12/2019

Row | SMILES | viability, T/C (compound 0.0316 µM) | viability, T/C (compound 0.1 µM) | viability, T/C (compound 0.316 µM) | viability, T/C (compound 1 µM) | viability, T/C (compound 3.16 µM) | viability, T/C (compound 10 µM) | IC50 (curve of compound) | viability, T/C (compound 0.00949 µM) | viability, T/C (compound 0.03 µM) | viability, T/C (compound 0.0949 µM) | viability, T/C (compound 0.3 µM) | viability, T/C (compound 0.949 µM) | viability, T/C (compound 3 µM) | also measured
1 | CC(C)n1c(=O)n(C)c2cnc3cc(F)c(-c4ccc(OCCCN5CCCCC5)nc4)cc3c21 | 99% and 107% and 96.4% | 87.8% and 104% and 101% | 91.9% and 96% and 90.8% | 87% and 91.9% and 71.7% | 68.2% and 74.7% and 61.6% | 34.8% and 48.2% and 35.8% | 5950 nM and 9440 nM and 4930 nM | – | – | – | – | – | – | –
2 | CC1COCCN1c1cc(-c2ccnn2C)c2ccnc(-c3ccn[nH]3)c2n1 (stereo not given) | 27.4% and 44.4% and 38.4% | 20.4% and 25.4% and 17.1% | 16.2% and 17.9% and 12.3% | 13.2% and 15.2% and 10.5% | 20% and 15.6% and 11% | 22.1% and 22.6% and 14.1% | < 31.6 nM | – | – | – | – | – | – | –
3 | CC[C@@]1(O)C(=O)OCc2c1cc1n(c2=O)Cc2cc3c(CN(C)C)c(O)ccc3nc2-1 | – | – | – | – | – | – | – | 87.9% [middle of 10 runs] | 81.2% [middle of 10 runs] | 70.1% [middle of 10 runs] | 51.5% [middle of 10 runs] | – | – | viability, T/C (compound 0.003 µM): 93.7% [middle of 10 runs]; IC50 [1]: > 300 nM and 283 nM; IC50 [2]: > 300 nM and 252 nM and 286 nM
4 | CNCc1ccc(-c2cc(-c3nc(-c4ccc(S(=O)(=O)C(C)C)cc4)cnc3N)on2)cc1 | – | – | – | – | – | – | 263 nM and 341 nM and 205 nM | 94.4% and 97.7% and 104% | 94.6% and 94.9% and 100% | 78.7% and 84% and 84.3% | 43.7% and 49.3% and 31.1% | 28% and 32.8% and 19.9% | 13.5% and 17.2% and 2.19% | –
5 | COc1cc(C)[nH]c(=O)c1CN1CCc2c(Cl)cc(C(OC)C3COC3)c(Cl)c2C1=O (stereo not given) | 72.5% and 105% and 108% | 94.6% and 111% and 95.2% | 100% and 109% and 89.6% | 108% and 107% and 93.8% | 113% and 110% and 96.4% | 94.8% and 100% and 98.8% | > 10000 nM | – | – | – | – | – | – | –
6 | COc1cc2c(cc1O)CCNC21CSC2c3c(OC(C)=O)c(C)c4c(c3C(COC1=O)N1C(O)C3Cc5cc(C)c(OC)c(O)c5C(C21)N3C)OCO4 (stereo not given) | – | – | – | – | – | – | – | – | – | – | – | – | – | viability, T/C (compound 0.003 µM): 0.57% [middle of 10 runs]; IC50 [2]: 0.667 nM [middle of 10 runs]
7 | COc1ccc([C@@H](O)c2cc(-c3ncnc4cc(N5CCOCC5)ccc34)c(F)cc2Cl)nn1 | 88.1% and 102% and 107% | 87.4% and 93.8% and 101% | 90.2% and 97.4% and 99.4% | 89.2% (2×) and 98.7% | 90.2% and 85.7% and 95.6% | 57.1% and 67% and 70.2% | > 10000 nM | – | – | – | – | – | – | –
8 | Cc1cc(C)c(CNC(=O)c2cc(-c3ccc(CN4CCOCC4)cc3)cc3c2cnn3C2CCCC2)c(=O)[nH]1 | 111% and 101% and 106% | 99.1% and 105% and 100% | 97.4% and 99.9% and 105% | 102% and 99.6% and 105% | 95.3% and 98.8% and 82% | 60.5% and 58.6% and 69% | > 10000 nM | – | – | – | – | – | – | –
9 | Cc1sc2c(c1C)C(c1ccc(Cl)cc1)=NC(CC(=O)Nc1ccc(O)cc1)c1nnc(C)n1-2 (stereo not given) | – | – | – | – | – | – | 277 nM and 490 nM and 282 nM | 102% (2×) and 124% | 105% and 104% and 90.7% | 79.4% and 83.4% and 72.8% | 48.1% and 59.7% and 50.1% | 35.9% and 35.4% and 29.1% | 29.3% and 33.5% and 24.2% | –
10 | Cn1ncnc1[C@H]1c2n[nH]c(=O)c3cc(F)cc(c23)N[C@@H]1c1ccc(F)cc1 | – | – | – | – | – | – | > 3000 nM | 80.9% and 90% and 94.8% | 93.7% and 94.9% and 97.7% | 88.3% and 90.8% and 91.5% | 77.9% and 87.9% and 79.2% | 82.8% and 80.2% and 81.8% | 75.7% and 82.9% and 62.9% | –
11 | Cn1nnc2c(C(N)=O)ncn2c1=O | – | – | – | 96.1% [middle of 10 runs] | 90.9% [middle of 10 runs] | 79.1% [middle of 10 runs] | – | – | – | – | – | – | – | viability, T/C (compound 31.6 µM): 69.1% [middle of 10 runs]; viability, T/C (compound 100 µM): 57.1% [middle of 10 runs]; IC50 [1]: > 100000 nM
12 | O=C(c1cc(Cc2n[nH]c(=O)c3ccccc23)ccc1F)N1CCN(C(=O)C2CC2)CC1 | – | – | – | – | – | – | 24700 nM and 15800 nM and 9440 nM | – | – | 99.7% and 104% and 98.4% | 102% and 97.7% and 100% | 96.9% and 88.7% and 98.6% | 79.8% and 87.7% and 85.5% | viability, T/C (compound 9.49 µM): 63.3% and 54.4% and 49.8%; viability, T/C (compound 30 µM): 47.1% and 43.4% and 46.1%
13 | [2H]c1nc(C)nc([2H])c1-c1cc(NC[C@@H](C)c2cccc3c(C(=O)NC)ccnc23)ncn1 | 80.2% and 102% and 103% | 91.6% and 101% and 97.5% | 94% and 103% and 107% | 96.9% and 96.7% and 114% | 103% and 101% and 111% | 103% and 94.8% and 108% | > 10000 nM | – | – | – | – | – | – | –
